Experiments:
GSK-3β = GSK-3β (Homo sapiens (Human), UniProt P49841); assay: GSK-3β kinase assay (Millipore IC50Profiler); format: biochemical
Experimental: (§1) GSK-3β, VEGFR-2, FLT-3, Kinase Assays
(§2) The effect of test compounds on the activity of the protein kinases GSK-3β, VEGFR-2 and FLT-3 was evaluated based on half maximal inhibitory concentration (IC50) values determined by Millipore UK Ltd; Gemini Crescent; Dundee Technology Park; Dundee DD2 1SW; UK (IC50Profiler). Detailed protocols can be found at: www.millipore.com/drugdiscovery/dd3/assayprotocols.
(§3) The inhibitory effect of test compounds on protein kinases VEGFR-2, FLT-3 and GSK-3β was investigated using respective kinase inhibition assays (method described above) and the values of half maximal inhibitory concentration (IC50) were determined from the assay results. […] Thus, compounds with selective kinase profiles were identified, which may allow application specific for a certain tumor or condition while showing less side-effects caused by activity against other kinases.

FLT-3 = FLT-3 (Homo sapiens (Human), UniProt P36888); assay: FLT-3 kinase assay (Millipore IC50Profiler); format: biochemical
Chain of FLT-3 (P36888 27-993): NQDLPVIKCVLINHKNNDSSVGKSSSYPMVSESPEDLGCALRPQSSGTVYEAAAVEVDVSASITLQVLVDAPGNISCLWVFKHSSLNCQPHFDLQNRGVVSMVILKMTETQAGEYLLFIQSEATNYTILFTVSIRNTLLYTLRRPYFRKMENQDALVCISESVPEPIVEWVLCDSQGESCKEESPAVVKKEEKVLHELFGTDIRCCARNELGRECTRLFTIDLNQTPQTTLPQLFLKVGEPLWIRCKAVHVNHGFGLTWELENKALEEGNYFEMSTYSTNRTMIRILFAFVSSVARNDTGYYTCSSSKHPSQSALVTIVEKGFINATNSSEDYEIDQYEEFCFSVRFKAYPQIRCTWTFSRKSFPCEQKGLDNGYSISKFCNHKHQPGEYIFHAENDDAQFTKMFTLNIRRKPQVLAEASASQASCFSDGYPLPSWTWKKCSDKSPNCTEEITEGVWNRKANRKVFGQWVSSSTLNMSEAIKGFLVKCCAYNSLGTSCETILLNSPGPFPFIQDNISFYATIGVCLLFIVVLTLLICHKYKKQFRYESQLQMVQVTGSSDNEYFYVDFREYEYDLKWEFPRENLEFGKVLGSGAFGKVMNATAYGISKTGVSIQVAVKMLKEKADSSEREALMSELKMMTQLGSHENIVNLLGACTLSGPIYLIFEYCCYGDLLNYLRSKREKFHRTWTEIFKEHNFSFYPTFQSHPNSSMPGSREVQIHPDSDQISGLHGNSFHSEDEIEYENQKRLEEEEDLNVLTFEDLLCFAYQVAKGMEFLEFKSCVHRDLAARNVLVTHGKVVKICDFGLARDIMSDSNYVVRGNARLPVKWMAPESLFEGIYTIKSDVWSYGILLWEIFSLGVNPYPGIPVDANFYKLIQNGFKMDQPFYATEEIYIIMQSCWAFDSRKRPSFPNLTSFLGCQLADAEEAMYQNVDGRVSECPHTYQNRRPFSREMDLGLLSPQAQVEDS
Experimental: as §1, §2, §3

VEGFR-2 = VEGFR-2 (Homo sapiens (Human), UniProt P35968); assay: VEGFR-2 kinase assay (Millipore IC50Profiler); format: biochemical
Chain of VEGFR-2 (P35968 20-1356): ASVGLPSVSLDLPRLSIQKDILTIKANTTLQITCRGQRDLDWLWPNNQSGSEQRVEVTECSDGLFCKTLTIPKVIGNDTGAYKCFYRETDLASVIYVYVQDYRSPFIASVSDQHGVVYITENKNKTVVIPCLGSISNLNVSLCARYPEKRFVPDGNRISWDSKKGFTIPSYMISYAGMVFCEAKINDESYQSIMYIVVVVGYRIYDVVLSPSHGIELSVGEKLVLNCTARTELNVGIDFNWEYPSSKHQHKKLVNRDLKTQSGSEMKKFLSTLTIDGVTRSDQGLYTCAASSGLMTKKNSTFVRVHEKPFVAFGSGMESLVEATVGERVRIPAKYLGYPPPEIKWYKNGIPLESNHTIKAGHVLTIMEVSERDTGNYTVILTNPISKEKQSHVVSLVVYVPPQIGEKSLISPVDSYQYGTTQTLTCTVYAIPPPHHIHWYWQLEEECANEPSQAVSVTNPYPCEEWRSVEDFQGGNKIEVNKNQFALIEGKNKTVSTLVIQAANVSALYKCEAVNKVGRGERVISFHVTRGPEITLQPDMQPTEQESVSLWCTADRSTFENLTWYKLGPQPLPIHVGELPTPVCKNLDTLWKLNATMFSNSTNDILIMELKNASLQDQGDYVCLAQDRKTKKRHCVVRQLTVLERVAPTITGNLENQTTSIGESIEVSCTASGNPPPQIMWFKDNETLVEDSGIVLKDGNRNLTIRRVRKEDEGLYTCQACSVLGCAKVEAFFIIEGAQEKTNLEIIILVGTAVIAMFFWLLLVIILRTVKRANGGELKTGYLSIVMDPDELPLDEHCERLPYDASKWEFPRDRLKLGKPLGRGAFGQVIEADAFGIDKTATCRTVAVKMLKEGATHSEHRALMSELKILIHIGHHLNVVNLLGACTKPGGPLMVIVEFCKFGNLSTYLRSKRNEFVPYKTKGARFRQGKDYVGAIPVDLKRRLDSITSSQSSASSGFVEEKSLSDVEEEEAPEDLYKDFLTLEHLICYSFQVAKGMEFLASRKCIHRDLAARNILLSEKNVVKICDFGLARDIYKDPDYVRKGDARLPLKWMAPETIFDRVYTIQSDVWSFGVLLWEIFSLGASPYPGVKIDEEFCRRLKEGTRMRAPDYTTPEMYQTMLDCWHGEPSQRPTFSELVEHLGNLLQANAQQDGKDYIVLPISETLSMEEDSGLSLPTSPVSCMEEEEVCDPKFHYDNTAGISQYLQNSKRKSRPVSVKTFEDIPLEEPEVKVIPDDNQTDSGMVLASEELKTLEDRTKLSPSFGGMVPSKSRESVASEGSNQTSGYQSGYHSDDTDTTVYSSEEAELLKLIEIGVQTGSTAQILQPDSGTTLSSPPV
From the text: as §1
Detailed protocols can be found at: www.millipore.com/drugdiscovery/dd3/assayprotocols.

[1] = test system: HT-29 human colon adenocarcinoma cells; assay: MTT assay, antiproliferative effect; format: cell-based; settings: HT-29, 72 h, 3 days, read-out: Viability of HT-29 cells as determined by MTT assay
Experimental: Evaluation of Antiproliferative Effect (MTT Assay)
The antiproliferative activity of test compounds was determined by the 3-(4,5-dimethylthiazol-2-yl)-2,5-diphenyltetrazolium bromide (MTT) assay as described previously (Mosmann, T. et al. (1983) J. Immunol. Methods 65: 55-63). Cells in the exponential growth phase were transferred to 96-well flat-bottomed plates. 10,000 viable cells contained in 200 μl cell suspension were plated into each well and incubated over night. Cells were then exposed to various concentrations of test compounds (100 μl/well) for 3 days at 37° C. with 5% CO2. Subsequently, 10 μl/well MTT stock solution (5 mg/ml; Biomol, Germany) were added and the cells were incubated at 37° C. with 5% CO2 for 4 hours. 100 μl solubilization solution (10% SDS in 0.01 M HCl) were added and the cells were incubated at 37° C. with 5% CO2 over night. Plates were read on an ELISA-Reader ELX 800 (BIO-TEK Software KC 4) at 562 nm absorbance. Each experiment was done in triplicate.
(§4) Working solutions of 26 mM test compound in DMSO were prepared and stored in aliquots at −20° C. A 29.6 mM stock solution of irinotecan in water was prepared and stored in aliquots at 4° C. The drugs were diluted in culture medium immediately before use to obtain the desired concentrations.
(§5) The human colon cancer cell line HT-29 was obtained from the DSMZ, Germany. […] cells were cultured in RPMI 1640 supplemented with 10% FCS at 37° C. and 5% CO2.
The antitumor activity of test compounds was examined against HT-29 human colon adenocarcinoma cells using MTT assay (method described above).

HT-29 cells = assay: Nicoletti apoptosis assay by cell cycle analysis (sub-G1 fraction); format: cell-based, human; settings: 7 days
Experimental: Nicoletti Apoptosis Assay by Cell Cycle Analysis
Cancer cells were transferred to 12-well flat-bottomed plates. 1.5×10^5 viable cells contained in 1 ml cell suspension were plated into each well and incubated over night before exposure with various concentrations of drugs. Subsequently, cells were incubated in 1 ml medium containing various concentrations of test compounds at 37° C. with 5% CO2. After incubation the cells were washed with PBS, trypsinized, pelleted and mixed with PI buffer (containing 0.1% sodium citrate, 0.1% triton X-100, […] propidium iodide (PI)) and incubated for 1 hour at 4° C. Cell cycle sub-G1 fraction analysis was performed as described previously (Nicoletti, I. et al. (1991) J. Immunol. Methods 139: 271-279) using a flow cytometer (BD FACS Calibur™, BD Biosciences, Heidelberg, Germany). Each experiment was done in triplicate.
as §4, §5
Compounds of the invention (test compounds) and the topoisomerase I inhibitor irinotecan were analyzed for their individual and combined effect in apoptosis assay (method described above). Induction of apoptosis was determined by cell cycle analysis (% sub-G1 fraction) after incubating HT-29 cells with test compounds, irinotecan or combinations thereof, respectively, for 7 days.

[2] = In vitro hepatic microsome stability; format: in vitro ADME; settings: rat liver microsomes in Tris buffer
Experimental: Metabolic conversion was evaluated by incubating compounds of the invention (test compounds) with rat liver microsomes (BD Biosciences) in Tris buffer.

[3] = 8 μM test compound plus 1.18 μM irinotecan

Chain of GSK-3β (P49841 whole entry): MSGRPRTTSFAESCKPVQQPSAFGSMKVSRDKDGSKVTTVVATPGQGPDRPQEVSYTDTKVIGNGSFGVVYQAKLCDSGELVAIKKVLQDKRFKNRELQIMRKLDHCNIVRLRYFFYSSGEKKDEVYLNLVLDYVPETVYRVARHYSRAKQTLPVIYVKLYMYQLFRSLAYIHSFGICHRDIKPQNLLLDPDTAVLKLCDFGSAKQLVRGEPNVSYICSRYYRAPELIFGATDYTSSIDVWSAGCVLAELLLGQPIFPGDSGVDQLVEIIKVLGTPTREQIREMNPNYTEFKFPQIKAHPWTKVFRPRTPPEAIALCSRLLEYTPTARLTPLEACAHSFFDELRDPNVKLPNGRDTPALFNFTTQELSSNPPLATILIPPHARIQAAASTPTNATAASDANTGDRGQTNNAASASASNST

COc1cc(C2=C(c3cn(CCOC(=O)C(N)CC(C)C)c4ccccc34)C(=O)NC2=O)cc(OC)c1OC (stereo not shown) [Compound D, 2-(3-(2,5-Dioxo-4-(3,4,5-trimethoxyphenyl)-2,5-dihydro-1H-pyrrol-3-yl)-1H-indol-1-yl)ethyl 2-amino-4-methylpentanoate]
IC50 (GSK-3β): 12 nM | IC50 (FLT-3): 239 nM | IC50 (VEGFR-2): 251 nM | viability at 1 µM [1]: 104 ± 6.4% | viability at 10 µM [1]: 99.4 ± 8.3% | viability at 20 µM [1]: 94.5 ± 8.3% | viability at 50 µM [1]: 65.3 ± 3.3% | Sub-G1 Fraction (HT-29 cells; 8 μM test compound only): 6.2 ± 0.8% | Sub-G1 Fraction (HT-29 cells; [3]): 44.5 ± 1.5% | Metabolic conversion (degradation, metabolite formed) [2]: yield metabolite D1

COc1cc(C2=C(c3cn(CCCNC(=O)C(N)CC(C)C)c4ccccc34)C(=O)NC2=O)cc(OC)c1OC (stereo not shown) [Compound A, 2-Amino-N-(3-(3-(2,5-dioxo-4-(3,4,5-trimethoxyphenyl)-2,5-dihydro-1H-pyrrol-3-yl)-1H-indol-1-yl)propyl)-4-methylpentanamide]
IC50 (GSK-3β): 208 nM | IC50 (FLT-3): ≥ 1000 nM | IC50 (VEGFR-2): ≥ 1000 nM | viability at 1 µM [1]: 94.9 ± 4.6% | viability at 10 µM [1]: 68.7 ± 0.9% | viability at 20 µM [1]: 59.2 ± 5.4% | viability at 50 µM [1]: 26 ± 8.9% | Sub-G1 Fraction (HT-29 cells; 8 μM test compound only): 7.4 ± 0.5% | Sub-G1 Fraction (HT-29 cells; [3]): 38.9 ± 2.8%

COc1cc(C2=C(c3cn(CCCO)c4ccccc34)C(=O)NC2=O)cc(OC)c1OC [Compound D1, 3-(1-(3-hydroxypropyl)indol-3-yl)-4-(3,4,5-trimethoxyphenyl)-1H-pyrrole-2,5-dione]
Metabolic conversion (degradation, metabolite formed) [2]: upon further degradation gave compound Z1

COc1cc(C2=C(c3cn(CCCO)c4ccccc34)C(=O)NC2=O)cc(OC)c1OC [Compound C1, 3-(1-(3-hydroxypropyl)indol-3-yl)-4-(3,4,5-trimethoxyphenyl)-1H-pyrrole-2,5-dione]
IC50 (GSK-3β): 2250 nM | IC50 (FLT-3): 556 nM | Metabolic conversion (degradation, metabolite formed) [2]: gave its metabolite Z1

CCc1c2c(nc3ccc(OC(=O)N4CCC(N5CCCCC5)CC4)cc13)-c1cc3c(c(=O)n1C2)COC(=O)[C@]3(O)CC [irinotecan, reference compound]
Sub-G1 Fraction (HT-29 cells; 1.18 μM irinotecan only): 26.1 ± 2.1%

COc1cc(C2=C(c3cn(CCCOC(=O)C(N)CC(C)C)c4ccccc34)C(=O)NC2=O)cc(OC)c1OC (stereo not shown) [Compound C, 3-(3-(2,5-Dioxo-4-(3,4,5-trimethoxyphenyl)-2,5-dihydro-1H-pyrrol-3-yl)-1H-indol-1-yl)propyl 2-amino-4-methylpentanoate]
IC50 (GSK-3β): 134 nM | IC50 (FLT-3): 480 nM | IC50 (VEGFR-2): ≥ 1000 nM | viability at 1 µM [1]: 96.7 ± 3.3% | viability at 10 µM [1]: 49.3 ± 1.1% | viability at 20 µM [1]: 51 ± 2.3% | Sub-G1 Fraction (HT-29 cells; 8 μM test compound only): 6.6 ± 0.4% | Sub-G1 Fraction (HT-29 cells; [3]): 39.2 ± 0.7% | Metabolic conversion (degradation, metabolite formed) [2]: time dependent degradation

COc1cc(C2=C(c3c[nH]c4ccccc34)C(=O)NC2=O)cc(OC)c1OC [Compound Z1, 3-(1-H-indol-3-yl)-4-(3,4,5-trimethoxyphenyl)-1H-pyrrole-2,5-dione]
IC50 (GSK-3β): > 1000 nM | IC50 (FLT-3): 270 nM | IC50 (VEGFR-2): 90 nM | Metabolic conversion (degradation, metabolite formed) [2]: metabolized to form metabolite Z2

Source: patent US8957103B2, “Conjugated 3-(indolyl)- and 3-(azaindolyl)-4-arylmaleimide compounds and their use in tumor treatment” (Johannes Gutenberg—Universitat Mainz, priority 2010, dated 2015)
